Values of other authors as cited in publication PMC7849180 (Frontiers in Pharmacology, 2020).
Like-named read-outs stand apart in the source and are kept apart here.

Key:
myelofibrosis [1] = system: myelofibrosis; design: method as in RA Abdelrahman et. al.; conditions: ref RA Abdelrahman et. al., cited from earlier work; for CR / Clinical Improvement (CI) / PR: 2013 IWG-MRT criteria; for patients with symptom improvement: 2013 IWG-MRT-ELN criteria
myelofibrosis [2] = conditions: ref Momelotinib extension study; cited from earlier work
myelofibrosis [3] = conditions: cited from earlier work
myelofibrosis [4] = system: myelofibrosis; design: method as in COMFORT-II; conditions: Week 48, ref COMFORT-II; cited from earlier work
myelofibrosis [5] = system: myelofibrosis; design: method as in Ruxolitinib Phase I/II trials; conditions: within 3 months, 153 MF patients, ref Ruxolitinib Phase I/II trials; cited from earlier work
polycythemia vera = conditions: cited from earlier work
myelofibrosis [6] = system: myelofibrosis; design: method as in COMFORT-I; conditions: ref COMFORT-I; cited from earlier work
[7] = 150 mg bid, ref Momelotinib Phase I/II
[8] = 150 mg qd, ref Momelotinib Phase I/II
[9] = 300 mg qd, ref Momelotinib Phase I/II
[10] = Grade 1, ref Momelotinib Phase I/II
[11] = Grade 2, ref Momelotinib Phase I/II
[12] = Grade 3, ref Momelotinib Phase I/II
[13] = Grade 4, ref Momelotinib Phase I/II
[14] = Total (n=166), ref Momelotinib Phase I/II
[15] = all cases (n=166), ref Momelotinib Phase I/II

N#CCNC(=O)c1ccc(-c2ccnc(Nc3ccc(N4CCOCC4)cc3)n2)cc1 [Momelotinib]
CR (myelofibrosis [1]): 0 (0%) n (%)
Clinical Improvement (CI) (myelofibrosis [1]): 34 (57%) n (%)
PR (myelofibrosis [1]): 1 (1.7%) n (%)
patients with symptom improvement (myelofibrosis [1]): 57%
Anemia Response (myelofibrosis [1]): 42 (19; 45%) n (responses; %)
Anemia Response in Transfusion-Dependent Patients (myelofibrosis [1]): 32 (17; 53%) n (responses; %)
Spleen Response (myelofibrosis [1]): 57 (24; 42%) Evaluables (responses; %)
anemia response rate (myelofibrosis [1]): 45%
spleen volume reduction response rate (myelofibrosis [1]): 42%
First Dose Effect: hypotension (myelofibrosis [2]): 5%
First Dose Effect: transient dizziness (myelofibrosis [2]): 10%
Grade 3/4 thrombocytopenia (myelofibrosis [2]): 30%
median maintenance duration of anemia response (myelofibrosis [2]): 1,042 days
median spleen response duration (myelofibrosis [2]): 785 days
patients with anemia response (myelofibrosis [2]): 53%
patients with spleen response (IWG-MRT) (myelofibrosis [2]): 39%
Average Reduction in Spleen Volume at Month 6 (myelofibrosis [3]; [7]): -46%
Hemoglobin Elevation of 2 g/dL or Above (8 Weeks) (myelofibrosis [3]; [7]): 14%
IWG-MRT Anemia Response Rate (myelofibrosis [3]; [7]): 36%
Spleen Response (myelofibrosis [3]; [7]): 38%
Transfusion Independence Rate (12 Weeks) (myelofibrosis [3]; [7]): 57%
Average Reduction in Spleen Volume at Month 6 (myelofibrosis [3]; [8]): -36%
Hemoglobin Elevation of 2 g/dL or Above (8 Weeks) (myelofibrosis [3]; [8]): 11%
IWG-MRT Anemia Response Rate (myelofibrosis [3]; [8]): 48%
Spleen Response (myelofibrosis [3]; [8]): 32%
Transfusion Independence Rate (12 Weeks) (myelofibrosis [3]; [8]): 63%
Average Reduction in Spleen Volume at Month 6 (myelofibrosis [3]; [9]): -38%
Hemoglobin Elevation of 2 g/dL or Above (8 Weeks) (myelofibrosis [3]; [9]): 8%
IWG-MRT Anemia Response Rate (myelofibrosis [3]; [9]): 55%
Spleen Response (myelofibrosis [3]; [9]): 39%
Transfusion Independence Rate (12 Weeks) (myelofibrosis [3]; [9]): 75%
ALP Elevation (myelofibrosis [3]; [10]): 5%
ALT Elevation (myelofibrosis [3]; [10]): 9%
AST Elevation (myelofibrosis [3]; [10]): 9%
Amylase Elevation (myelofibrosis [3]; [10]): 7%
Anemia, drug-related AE (myelofibrosis [3]; [10]): 2%
Bilirubin Elevation (myelofibrosis [3]; [10]): 7%
Creatinine Elevation (myelofibrosis [3]; [10]): 5%
Diarrhea, drug-related AE (myelofibrosis [3]; [10]): 18%
Headache, drug-related AE (myelofibrosis [3]; [10]): 14%
Leukopenia, drug-related AE (myelofibrosis [3]; [10]): 2%
Lipase Elevation (myelofibrosis [3]; [10]): 8%
Nausea, drug-related AE (myelofibrosis [3]; [10]): 20%
Neutropenia, drug-related AE (myelofibrosis [3]; [10]): < 1%
Peripheral Neuropathy, drug-related AE (myelofibrosis [3]; [10]): 25%
Thrombocytopenia, Baseline Platelet > 150 x 109/L (n=97) (myelofibrosis [3]; [10]): 18%
Thrombocytopenia, drug-related AE (myelofibrosis [3]; [10]): 14%
Vertigo, drug-related AE (myelofibrosis [3]; [10]): 22%
ALP Elevation (myelofibrosis [3]; [11]): 1%
ALT Elevation (myelofibrosis [3]; [11]): 3%
AST Elevation (myelofibrosis [3]; [11]): 2%
Amylase Elevation (myelofibrosis [3]; [11]): 2%
Anemia, drug-related AE (myelofibrosis [3]; [11]): 2%
Bilirubin Elevation (myelofibrosis [3]; [11]): 2%
Creatinine Elevation (myelofibrosis [3]; [11]): 3%
Diarrhea, drug-related AE (myelofibrosis [3]; [11]): 4%
Leukopenia, drug-related AE (myelofibrosis [3]; [11]): < 1%
Lipase Elevation (myelofibrosis [3]; [11]): < 1%
Nausea, drug-related AE (myelofibrosis [3]; [11]): < 1%
Neutropenia, drug-related AE (myelofibrosis [3]; [11]): 2%
Peripheral Neuropathy, drug-related AE (myelofibrosis [3]; [11]): 2%
Thrombocytopenia, Baseline Platelet > 150 x 109/L (n=97) (myelofibrosis [3]; [11]): 1%
Thrombocytopenia, drug-related AE (myelofibrosis [3]; [11]): 8%
Vertigo, drug-related AE (myelofibrosis [3]; [11]): 1%
ALP Elevation (myelofibrosis [3]; [12]): 1%
ALT Elevation (myelofibrosis [3]; [12]): 2%
AST Elevation (myelofibrosis [3]; [12]): 1%
Anemia, drug-related AE (myelofibrosis [3]; [12]): 2%
Headache, drug-related AE (myelofibrosis [3]; [12]): 1%
Lipase Elevation (myelofibrosis [3]; [12]): 4%
Neutropenia, drug-related AE (myelofibrosis [3]; [12]): 1%
Thrombocytopenia, Baseline Platelet > 150 x 109/L (n=97) (myelofibrosis [3]; [12]): 9%
Thrombocytopenia, drug-related AE (myelofibrosis [3]; [12]): 17%
Leukopenia, drug-related AE (myelofibrosis [3]; [13]): < 1%
Neutropenia, drug-related AE (myelofibrosis [3]; [13]): 2%
Thrombocytopenia, Baseline Platelet > 150 x 109/L (n=97) (myelofibrosis [3]; [13]): 1%
Thrombocytopenia, drug-related AE (myelofibrosis [3]; [13]): 7%
Hemoglobin Elevation of 2 g/dL or Above (8 Weeks) (myelofibrosis [3]; [14]): 13%
IWG-MRT Anemia Response Rate (myelofibrosis [3]; [14]): 48%
Transfusion Independence Rate (12 Weeks) (myelofibrosis [3]; [14]): 68%
Average Reduction in Spleen Volume at Month 6 (myelofibrosis [3]; [15]): -38%
Spleen Response (myelofibrosis [3]; [15]): 37%
transfusion dependent patients with non-transfusion dependent duration of at least 12 weeks (myelofibrosis [3]; n=33, ref Momelotinib Phase I/II): 70%
patients with improvement of anemia (myelofibrosis [3]; ref Momelotinib Phase I/II): 59%
symptom controlled: bone pain (myelofibrosis [3]; ref Momelotinib Phase I/II): 33%
symptom controlled: cough (myelofibrosis [3]; ref Momelotinib Phase I/II): 29%
symptom controlled: fever (myelofibrosis [3]; ref Momelotinib Phase I/II): 100%
symptom controlled: night sweat (myelofibrosis [3]; ref Momelotinib Phase I/II): 57%
symptom controlled: pruritus (myelofibrosis [3]; ref Momelotinib Phase I/II): 52%

N#CC[C@H](C1CCCC1)n1cc(-c2ncnc3[nH]ccc23)cn1 [Ruxolitinib]
patients with ≥35% reduction in spleen volume (myelofibrosis [4]): 28%
patients with >50% reduction in spleen volume (myelofibrosis [5]): 44%
Thrombus, patients (polycythemia vera; Ruxolitinib group, ref RESPONSE study): 1
Herpes zoster infection (polycythemia vera; in vivo): 6%
herpes zoster incidence (polycythemia vera; in vivo): 4.7%
CR (myelofibrosis [1]): 0 (0%) n (%)
Clinical Improvement (CI) (myelofibrosis [1]): 9 (18%) n (%)
PR (myelofibrosis [1]): 0 (0%) n (%)
patients with symptom improvement (myelofibrosis [1]): 18%
Anemia Response (myelofibrosis [1]): 19 (2; 11%) n (responses; %)
Anemia Response in Transfusion-Dependent Patients (myelofibrosis [1]): 12 (2; 17%) n (responses; %)
Spleen Response (myelofibrosis [1]): 46 (7; 15%) Evaluables (responses; %)
anemia response rate (myelofibrosis [1]): 11%
spleen volume reduction response rate (myelofibrosis [1]): 15%
patients with ≥35% reduction in spleen volume (myelofibrosis [6]): 41.9%
